The results in this text go back to patent US20210403435A1, “HERBICIDAL COMPOUNDS” (SYNGENTA CROP PROTECTION AG, priority 2018, published 2021).

Common to all, as to test: Post-emergence efficacy, glasshouse, evaluated after 13 days
Common to all, as to type: in vivo

The test system of assay [1] is Amaranthus palmeri (AMAPA). The settings on record: Amaranthus palmeri, 312 h; post-emergence application, 500 g/Ha, evaluated after 13 days; read-out: Control of weed species AMAPA (100=total damage to plant; 0=no damage to plant). In short, it runs like this:
(§1)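 After 14 days' growth in pots, plants were treated by spray with compound diluted from a 50 g/l IF50 stock concentrate into 0.25% or 1% Empicol ESC70 + 1% ammonium sulphate. Thirteen days later, injury was scored 0–100.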

Assay [2] concerns Chenopodium album (CHEAL). The following applies: Chenopodium album, 312 h; post-emergence application, 500 g/Ha, evaluated after 13 days; read-out: Control of weed species CHEAL (100=total damage to plant; 0=no damage to plant). In outline: as §1
Assay [3] deals with Echinochloa crus-galli (ECHCG). The settings on record: Echinochloa crus-galli, 312 h; post-emergence application, 500 g/Ha, evaluated after 13 days; read-out: Control of weed species ECHCG (100=total damage to plant; 0=no damage to plant). In short, it runs like this: as §1
Another assay concerns Setaria faberi (SETFA). The settings on record: Setaria faberi, 312 h; post-emergence application, 500 g/Ha, evaluated after 13 days; read-out: Control of weed species SETFA (100=total damage to plant; 0=no damage to plant). In short, it runs like this:
as §1

The test system of assay [4] is Euphorbia heterophylla (EPHHL). The following applies: Euphorbia heterophylla, 312 h; post-emergence application, 500 g/Ha, evaluated after 13 days; read-out: Control of weed species EPHHL (100=total damage to plant; 0=no damage to plant). In short, it runs like this: as §1
In assay [5] the test system is Digitaria sanguinalis (DIGSA). The following applies: Digitaria sanguinalis, 312 h; post-emergence application, 500 g/Ha, evaluated after 13 days; read-out: Control of weed species DIGSA (100=total damage to plant; 0=no damage to plant). In short, it runs like this:
as §1

The next assay concerns Eleusine indica (ELEIN). The settings on record: Eleusine indica, 312 h; post-emergence application, 500 g/Ha, evaluated after 13 days; read-out: Control of weed species ELEIN (100=total damage to plant; 0=no damage to plant). In short, it runs like this: as §1
A further assay concerns Lolium perenne (LOLPE). The following applies: Lolium perenne, 312 h; post-emergence application, 500 g/Ha, evaluated after 13 days; read-out: Control of weed species LOLPE (100=total damage to plant; 0=no damage to plant). In short, it runs like this:
as §1

For assay [6], the system named is Ipomoea hederacea (IPOHE). The settings on record: Ipomoea hederacea, 312 h; post-emergence application, 500 g/Ha, evaluated after 13 days; read-out: Control of weed species IPOHE (100=total damage to plant; 0=no damage to plant). In outline:
as §1

Consider `CN(CC#N)C(=O)c1cc[n+](CCC(=O)O)nc1` [Compound A107], for which the pest or weed control at 500 g/ha in [1] amounted to 100%; in assay [2], 20%; in assay [3], 60%; with Setaria faberi (SETFA) it was 60%; in assay [4], 100%; in [5], 40%. Also, the pest or weed control at 500 g/ha in the assay with Eleusine indica (ELEIN) stood at 20%; in the assay with Lolium perenne (LOLPE), 0%; in assay [6], 20%.
On to `O=C(O)CC[n+]1ccc(C(=O)NCc2ccc(F)cc2)cn1` [Compound A22], for which the pest or weed control at 500 g/ha in [1] was found to be 100%; in [2], 90%; in [3], 50%; in the assay with Setaria faberi (SETFA), 50%; in assay [4], 90%; in assay [5], 60%. Also, the pest or weed control at 500 g/ha in the assay on Eleusine indica (ELEIN) was 60%; in the assay on Lolium perenne (LOLPE) it was 40%; in assay [6], 40%.
`CC1(NC(=O)c2cc[n+](CCNS(=O)(=O)[O-])nc2)CC1` [Compound A99]: the pest or weed control at 500 g/ha is 50% in assay [1]; 40% in [2]; 60% in assay [3]; 90% in the assay with Setaria faberi (SETFA); 40% in assay [4]; 100% in assay [5]. Also, the pest or weed control at 500 g/ha with Eleusine indica (ELEIN) is 70%; with Lolium perenne (LOLPE) it was 40%; in assay [6], 30%.
Regarding `C=CCNC(=O)c1cc[n+](CCCOS(=O)(=O)[O-])nc1` [Compound A125], the pest or weed control at 500 g/ha in assay [1] came out at 30%; in [2], 60%; in assay [3], 70%; in the assay with Setaria faberi (SETFA) it was 50%; in [4], 60%; in [5], 60%. The pest or weed control at 500 g/ha is 30% in the assay on Eleusine indica (ELEIN), 60% in the assay on Lolium perenne (LOLPE) and 50% in [6].
For the compound `CC1(C)CC(NC(=O)c2cc[n+](CCC(=O)O)nc2)=NO1` [Compound A131], the pest or weed control at 500 g/ha stood at 30% in [1]; 10% in assay [2]; 30% in assay [3]; 30% in the assay with Setaria faberi (SETFA); 90% in assay [4]; 30% in assay [5]. For the same compound, the results for the pest or weed control at 500 g/ha (with Eleusine indica (ELEIN); with Lolium perenne (LOLPE); in assay [6]) were 20%, 0% and 30%, respectively.
`CCS(=O)(=O)CCNC(=O)c1cc[n+](CCC(=O)O)nc1` [Compound A118]: the pest or weed control at 500 g/ha was found to be 100% in assay [1]; 100% in [2]; 40% in assay [3]; 90% with Setaria faberi (SETFA); 90% in assay [4]; 100% in assay [5]. For the same compound, the pest or weed control at 500 g/ha is 50% in the assay on Eleusine indica (ELEIN), 50% in the assay on Lolium perenne (LOLPE) and 40% in assay [6].
For `CNC(=O)c1cn[n+](CCS(=O)(=O)[O-])cc1-c1ccccc1` [Compound A39], the pest or weed control at 500 g/ha turned out to be 70% in assay [1]; 70% in assay [2]; 40% in assay [3]; 30% in the assay on Setaria faberi (SETFA); 50% in assay [4]; 40% in [5]. Moreover, the pest or weed control at 500 g/ha in the assay with Eleusine indica (ELEIN) was determined as 50%; with Lolium perenne (LOLPE) it was 10%; in [6], 20%.
